Experimental data published in patent publication US12077503B2, “Substituted cyclic amides and their use as herbicides” (FMC CORPORATION, priority 2015, dated 2024).

Columns and labels:
Assay type in all cases: in vivo
[1] = test system: giant foxtail (Setaria faberi); test: Test G Post-Emergence Protocol; conditions: Setaria faberi, post-emergence, 312 h; for pest or weed control at 15.625 g/ha: 15.625 g ai/ha, evaluated after 13 days (100=total damage to plant; 0=no damage to plant), read-out: Foxtail, Giant damage rating; for pest or weed control at 62.5 g/ha: 62.5 g ai/ha, read-out: Foxtail, Giant damage rating (100=total damage to plant; 0=no damage to plant); for pest or weed control at 62.5 g/ha / pest or weed control at 250 g/ha: evaluated after 13 days; for pest or weed control at 250 g/ha: 250 g ai/ha, read-out: damage to plant, Foxtail, Giant (100=total damage to plant; 0=no damage to plant)
Summary of the method: (§1)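 Sow in soil; grow 8 d (24/16 °C, 14 h light, 65% humidity); spray 15.625/62.5/250 g/ha in acetone:water 50:50 + 0.5% Tween 20; grow on, water twice daily; score damage 0–100 at 13 d.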

[2] = test system: velvetleaf (Abutilon theophrasti); test: Test G Post-Emergence Protocol; conditions: Abutilon theophrasti, post-emergence, 312 h; for pest or weed control at 15.625 g/ha: 15.625 g ai/ha, evaluated after 13 days (100=total damage to plant; 0=no damage to plant), read-out: Velvetleaf damage rating; for pest or weed control at 62.5 g/ha: 62.5 g ai/ha, read-out: Velvetleaf damage rating (100=total damage to plant; 0=no damage to plant); for pest or weed control at 62.5 g/ha / pest or weed control at 250 g/ha: evaluated after 13 days; for pest or weed control at 250 g/ha: 250 g ai/ha, read-out: damage to plant, Velvetleaf (100=total damage to plant; 0=no damage to plant)
Summary of the method: as §1

[3] = test system: ivy-leaved morning glory (Ipomoea hederacea); test: Test G Post-Emergence Protocol; conditions: Ipomoea, post-emergence, 312 h; for pest or weed control at 15.625 g/ha: 15.625 g ai/ha, evaluated after 13 days (100=total damage to plant; 0=no damage to plant), read-out: Morningglory, Ivy-leaved damage rating; for pest or weed control at 62.5 g/ha: 62.5 g ai/ha, read-out: Morningglory, Ivy-leaved damage rating (100=total damage to plant; 0=no damage to plant); for pest or weed control at 62.5 g/ha / pest or weed control at 250 g/ha: evaluated after 13 days; for pest or weed control at 250 g/ha: 250 g ai/ha, read-out: damage to plant, Morningglory, Ivy-leaved (100=total damage to plant; 0=no damage to plant)
Summary of the method: as §1

[4] = test system: redroot pigweed (Amaranthus retroflexus); test: Test G Post-Emergence Protocol; conditions: Amaranthus retroflexus, post-emergence, 312 h; for pest or weed control at 15.625 g/ha: 15.625 g ai/ha, evaluated after 13 days (100=total damage to plant; 0=no damage to plant), read-out: Pigweed, Redroot damage rating; for pest or weed control at 62.5 g/ha: 62.5 g ai/ha, read-out: Pigweed, Redroot damage rating (100=total damage to plant; 0=no damage to plant); for pest or weed control at 62.5 g/ha / pest or weed control at 250 g/ha: evaluated after 13 days; for pest or weed control at 250 g/ha: 250 g ai/ha, read-out: damage to plant, Pigweed, Redroot (100=total damage to plant; 0=no damage to plant)
Summary of the method: as §1

corn (Zea mays) [5] = test: Test G Post-Emergence Protocol; conditions: Zea mays, post-emergence, 312 h; for plant injury at 15.625 g/ha: 15.625 g ai/ha, evaluated after 13 days (100=total damage to plant; 0=no damage to plant), read-out: Corn damage rating; for plant injury at 62.5 g/ha: 62.5 g ai/ha, read-out: Corn damage rating (100=total damage to plant; 0=no damage to plant); for plant injury at 62.5 g/ha / plant injury at 250 g/ha: evaluated after 13 days; for plant injury at 250 g/ha: 250 g ai/ha, read-out: damage to plant, Corn (100=total damage to plant; 0=no damage to plant)
Summary of the method: as §1

[6] = test system: barnyardgrass (Echinochloa crus-galli); test: Test G Post-Emergence Protocol; conditions: Echinochloa crus-galli, post-emergence, 312 h; for pest or weed control at 15.625 g/ha: 15.625 g ai/ha, evaluated after 13 days (100=total damage to plant; 0=no damage to plant), read-out: Barnyardgrass damage rating; for pest or weed control at 62.5 g/ha: 62.5 g ai/ha, read-out: Barnyardgrass damage rating (100=total damage to plant; 0=no damage to plant); for pest or weed control at 62.5 g/ha / pest or weed control at 250 g/ha: evaluated after 13 days; for pest or weed control at 250 g/ha: 250 g ai/ha, read-out: damage to plant, Barnyardgrass (100=total damage to plant; 0=no damage to plant)
Summary of the method: as §1

[7] = test system: giant foxtail (Setaria faberi); test: Test G Pre-Emergence Protocol; conditions: Setaria faberi, pre-emergence, 312 h, evaluated after 13 days; for pest or weed control at 15.625 g/ha: 15.625 g ai/ha; for pest or weed control at 15.625 g/ha / pest or weed control at 250 g/ha: read-out: Foxtail, Giant damage rating (100=total damage to plant; 0=no damage to plant); for pest or weed control at 62.5 g/ha: 62.5 g ai/ha, 100=total damage to plant, 0=no damage to plant, read-out: plant damage rating, Foxtail, Giant; for pest or weed control at 250 g/ha: 250 g ai/ha
Summary of the method: (§2)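 Seeds were sown in standard soil and kept one day in a glasshouse (24/16° C day/night, 14 h light, 65% humidity), then sprayed with compound in acetone/water (50:50) containing 0.5% Tween 20 at 15.625, 62.5 or 250 g/ha. Damage was scored after 13 days (0 = none, 100 = total).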

[8] = test system: velvetleaf (Abutilon theophrasti); test: Test G Pre-Emergence Protocol; conditions: Abutilon theophrasti, pre-emergence, 312 h, evaluated after 13 days; for pest or weed control at 15.625 g/ha: 15.625 g ai/ha; for pest or weed control at 15.625 g/ha / pest or weed control at 250 g/ha: read-out: Velvetleaf damage rating (100=total damage to plant; 0=no damage to plant); for pest or weed control at 62.5 g/ha: 62.5 g ai/ha, 100=total damage to plant, 0=no damage to plant, read-out: plant damage rating, Velvetleaf; for pest or weed control at 250 g/ha: 250 g ai/ha
Summary of the method: as §2

[9] = test system: ivy-leaved morning glory (Ipomoea hederacea); test: Test G Pre-Emergence Protocol; conditions: Ipomoea, pre-emergence, 312 h, evaluated after 13 days; for pest or weed control at 15.625 g/ha: 15.625 g ai/ha, read-out: Morning-glory, Ivy-leaved damage rating (100=total damage to plant; 0=no damage to plant); for pest or weed control at 62.5 g/ha: 62.5 g ai/ha, 100=total damage to plant, 0=no damage to plant, read-out: plant damage rating, Morningglory, Ivy-leaved; for pest or weed control at 250 g/ha: 250 g ai/ha, read-out: Morningglory, Ivy-leaved damage rating (100=total damage to plant; 0=no damage to plant)
Summary of the method: as §2

[10] = test system: redroot pigweed (Amaranthus retroflexus); test: Test G Pre-Emergence Protocol; conditions: Amaranthus retroflexus, pre-emergence, 312 h, evaluated after 13 days; for pest or weed control at 15.625 g/ha: 15.625 g ai/ha; for pest or weed control at 15.625 g/ha / pest or weed control at 250 g/ha: read-out: Pigweed, Redroot damage rating (100=total damage to plant; 0=no damage to plant); for pest or weed control at 62.5 g/ha: 62.5 g ai/ha, 100=total damage to plant, 0=no damage to plant, read-out: plant damage rating, Pigweed, Redroot; for pest or weed control at 250 g/ha: 250 g ai/ha
Summary of the method: as §2

corn (Zea mays) [11] = test: Test G Pre-Emergence Protocol; conditions: Zea mays, pre-emergence, 312 h, evaluated after 13 days; for plant injury at 15.625 g/ha: 15.625 g ai/ha; for plant injury at 15.625 g/ha / plant injury at 250 g/ha: read-out: Corn damage rating (100=total damage to plant; 0=no damage to plant); for plant injury at 62.5 g/ha: 62.5 g ai/ha, 100=total damage to plant, 0=no damage to plant, read-out: plant damage rating, Corn; for plant injury at 250 g/ha: 250 g ai/ha
Summary of the method: as §2

[12] = test system: barnyardgrass (Echinochloa crus-galli); test: Test G Pre-Emergence Protocol; conditions: Echinochloa crus-galli, pre-emergence, 312 h, evaluated after 13 days; for pest or weed control at 15.625 g/ha: 15.625 g ai/ha, read-out: Barnyard grass damage rating (100=total damage to plant; 0=no damage to plant); for pest or weed control at 62.5 g/ha: 62.5 g ai/ha, 100=total damage to plant, 0=no damage to plant, read-out: plant damage rating, Barnyardgrass; for pest or weed control at 250 g/ha: 250 g ai/ha, read-out: Barnyardgrass damage rating (100=total damage to plant; 0=no damage to plant)
Summary of the method: as §2

Row | Compound | pest or weed control at 15.625 g/ha [1] | pest or weed control at 62.5 g/ha [1] | pest or weed control at 250 g/ha [1] | pest or weed control at 15.625 g/ha [2] | pest or weed control at 62.5 g/ha [2] | pest or weed control at 250 g/ha [2] | pest or weed control at 15.625 g/ha [3] | pest or weed control at 62.5 g/ha [3] | pest or weed control at 250 g/ha [3] | pest or weed control at 15.625 g/ha [4] | pest or weed control at 62.5 g/ha [4] | pest or weed control at 250 g/ha [4] | plant injury at 15.625 g/ha (corn (Zea mays) [5]) | plant injury at 62.5 g/ha (corn (Zea mays) [5]) | plant injury at 250 g/ha (corn (Zea mays) [5]) | pest or weed control at 15.625 g/ha [6] | pest or weed control at 62.5 g/ha [6] | pest or weed control at 250 g/ha [6] | pest or weed control at 15.625 g/ha [7] | pest or weed control at 62.5 g/ha [7] | other results
1 | CN1C[C@@H](c2ccc(C(F)(F)F)cc2)[C@H](C(=O)Nc2cccc(F)n2)C1=O [Compound 1489] | 0% | 0% | 40% | 0% | 0% | 0% | 0% | 0% | 0% | 0% | 0% | 10% | 10% | 10% | 40% | 0% | 0% | 30% | 0% | 0% | pest or weed control at 250 g/ha [7]: 0%; pest or weed control at 15.625 g/ha [8]: 0%; pest or weed control at 62.5 g/ha [8]: 0%; pest or weed control at 250 g/ha [8]: 0%; pest or weed control at 15.625 g/ha [9]: 0%; pest or weed control at 62.5 g/ha [9]: 0%; pest or weed control at 250 g/ha [9]: 0%; pest or weed control at 15.625 g/ha [10]: 0%; pest or weed control at 62.5 g/ha [10]: 0%; pest or weed control at 250 g/ha [10]: 100%; plant injury at 15.625 g/ha (corn (Zea mays) [11]): 0%; plant injury at 62.5 g/ha (corn (Zea mays) [11]): 0%; plant injury at 250 g/ha (corn (Zea mays) [11]): 0%; pest or weed control at 15.625 g/ha [12]: 0%; pest or weed control at 62.5 g/ha [12]: 0%; pest or weed control at 250 g/ha [12]: 0%
2 | CN1C[C@@H](c2ccc(C(F)(F)F)cc2)[C@H](C(=O)Nc2cc(C(F)(F)F)[nH]n2)C1=O (racemic) [Compound 1530] | 0% | 0% | 0% | 0% | 0% | 0% | 0% | 0% | 0% | 0% | 0% | 0% | 0% | 0% | 0% | 0% | 0% | 0% | 0% | 0% | pest or weed control at 250 g/ha [7]: 0%; pest or weed control at 15.625 g/ha [8]: 0%; pest or weed control at 62.5 g/ha [8]: 0%; pest or weed control at 250 g/ha [8]: 0%; pest or weed control at 15.625 g/ha [9]: 0%; pest or weed control at 62.5 g/ha [9]: 0%; pest or weed control at 250 g/ha [9]: 0%; pest or weed control at 15.625 g/ha [10]: 0%; pest or weed control at 62.5 g/ha [10]: 0%; pest or weed control at 250 g/ha [10]: 0%; plant injury at 15.625 g/ha (corn (Zea mays) [11]): 0%; plant injury at 62.5 g/ha (corn (Zea mays) [11]): 0%; plant injury at 250 g/ha (corn (Zea mays) [11]): 0%; pest or weed control at 15.625 g/ha [12]: 0%; pest or weed control at 62.5 g/ha [12]: 0%; pest or weed control at 250 g/ha [12]: 0%
